Where two headings read alike, the source gives them in different places.
Experiment: Hydrolysis in human articular synovia
Assay type: in vitro ADME
Details: for metabolised at 1 h: human, articular synovia, 60 minutes at 37° C., read-out: Hydrolysis rate
Experimental: Into 1 ml of articular synovia of a patient with rheumatoid or osteoarthritis, was added 10 ml of an acetone solution of ethyl 2-(2-fluoro-4-biphenylyl)propionate(ethyl flurbiprofen ester: compound 1) or acetoxymethyl 2-(2-fluoro-4-biphenylyl)propionate(acetoxymethyl flurbiprofen ester; compound 2) (each being contained in an equimolar amount to 50 ng of flurbiprofen), respectively, and the mixture was incubated for 60 minutes at 37° C. The concentration of flurbiprofen formed by hydrolysis was then determined by gas chromatography.

SMILES | hydrolysis in human articular synovia (in words) | metabolised at 1 h (patient five (Rheumatoid)) [%] | metabolised at 1 h (patient four (Rheumatoid)) [%] | metabolised at 1 h (patient one (Rheumatoid)) [%] | metabolised at 1 h (patient three (Osteoarthritis)) [%] | metabolised at 1 h (patient two (Unknown)) [%]
CCOC(=O)C(C)c1ccc(-c2ccccc2)c(F)c1 (stereo not drawn) [Compound 1, ethyl 2-(2-fluoro-4-biphenylyl)propionate] | substantially not hydrolyzed | 0 | 0 | 25.8 | 0 | 2
CC(=O)OCOC(=O)C(C)c1ccc(-c2ccccc2)c(F)c1 (stereo not drawn) [Compound 2, acetoxymethyl 2-(2-fluoro-4-biphenylyl)propionate] | effectively hydrolyzed | 65.7 | 64.1 | 91.3 | 64.7 | 84.4

— patent US4613505A, “Ester of flurbiprofen and emulsion containing the same” (The Green Cross Corporation, priority 1983, dated 1986)
